The target of this assay is T1, human CB1 receptor (Homo sapiens, UniProt P21554).
T1 construct: expressed in transfected cells; membranes
The experiment in a line: Cannabinoid Receptor-1 functional assay: inhibition of CP55940-induced [35S]GTPγS binding to membranes of CHO-K1 cells expressing human CB1. Format: biochemical. The conditions noted are these: 3 nM CP55940, hCB1 membranes, [35S]GTPγS SPA; read-out: IC50 value for antagonizing a CB1 receptor agonist. From the text:
Transfection and Cell Culture—The cDNA encoding the human CB1 (Cannabinoid Receptor-1) receptor (GenBank accession number NM_016083) was cloned from a human adipose tissue cDNA library and cloned into the eukaryotic expression vector pcDNA3.1 (Invitrogen).
Chinese Hamster Ovary cells (CHO-K1) stably expressing recombinant human CB1 were generated by transfecting the plasmid containing the coding sequence of the human CB1 receptor in CHO-K1 cells, using lipofectamin, according to the manufacturer instructions. Resistant clones were selected in the presence of 600 μg/ml G418 (Life technology). Stably transfected CHO-K1 cells were maintained in Ham's F-12 culture medium (Invitrogen), supplemented with 10% fetal calf serum (Invitrogen), 100 U/ml penicillin, 100 μg/ml streptomycin (Life Technology), and 600 μg/ml G418.
Cannabinoid Receptor-1 Functional Assay.
Functional activities of the above examples of compounds of the invention were assessed in vitro by measuring their ability to inhibit CP55940-induced [^35S]GTPγS binding to membranes prepared from CHO-K1 cells expressing the human CB1 receptor (described in Transfection and Cell Culture). CP55940 is a well known non-selective CB1 and CB2 receptor agonist (e.g Felder et al., 1995, Molecular Pharmacology, (48) 443-50). Membranes were prepared by a standard procedure. Briefly, cells were harvested using 10 mM EDTA and collected by centrifugation. Pelleted cells were homogenized in ice-cold 20 mM Hepes (pH 7.4),10 mM EDTA and protease inhibitors (Complete protease inhibitor cocktail tablet, Roche) using an Ultra Turrax Homogenizer. The homogenate was centrifuged at 14 000 rpm for 45 min. at 4° C. The resultant pellet was resuspended in the same buffer but with only 0.1 mM EDTA and was again centrifuged at 14 000 rpm for 45 min. at 4° C. The resulting pellet (membranes) was resuspended in 20 mM Hepes (pH 7.4), 0.1 mM EDTA, 2 mM MgCl2 and protease inhibitors and protein concentration was determined by Micro BCA Protein Assay Reagent Kit (Pierce Biotechnology) according to the manufacturer instructions. The [^35S]GYPγS SPA (Scintillation Proximity Assay) binding assay was performed by incubating 5 μg/well hCB1-membranes with 1 nM [^35S]GYPγS (Perkin Elmer—NEG 030H) in the presence of 3 nM of CP55940 and various concentrations of the test compounds at room temperature for 1 hr in 96-well microtiter plates. 0.4 mg/well SPA beads (PVT-WGA; RPNQ0001 Amersham Pharmacia Biotech) were then added and the incubation continued for further 30 min. on an orbital shaker. The assay buffer contained 50 mM HEPES (pH 7.5), 50 mM NaCl, 2.5 mM MgCl2, 0.1% BSA, 1 μM GDP and 100 μg/ml Saponin. Microtiter plates were centrifuged at 1500 rpm for 5 min. and radioactivity was read immediately using a Topcounter (PerkinElmer Life Sciences). Data were analyzed and IC50 values determined by non-linear regression using the Prism software (GraphPad Software, San Diego).
For orientation: GTPγS is a poorly hydrolysed GTP analogue; its binding reports G protein activation.

The structures appear in SMILES notation.

Broadly, the IC50 is the concentration needed to halve the response being measured.

T1 sequence (P21554 whole entry): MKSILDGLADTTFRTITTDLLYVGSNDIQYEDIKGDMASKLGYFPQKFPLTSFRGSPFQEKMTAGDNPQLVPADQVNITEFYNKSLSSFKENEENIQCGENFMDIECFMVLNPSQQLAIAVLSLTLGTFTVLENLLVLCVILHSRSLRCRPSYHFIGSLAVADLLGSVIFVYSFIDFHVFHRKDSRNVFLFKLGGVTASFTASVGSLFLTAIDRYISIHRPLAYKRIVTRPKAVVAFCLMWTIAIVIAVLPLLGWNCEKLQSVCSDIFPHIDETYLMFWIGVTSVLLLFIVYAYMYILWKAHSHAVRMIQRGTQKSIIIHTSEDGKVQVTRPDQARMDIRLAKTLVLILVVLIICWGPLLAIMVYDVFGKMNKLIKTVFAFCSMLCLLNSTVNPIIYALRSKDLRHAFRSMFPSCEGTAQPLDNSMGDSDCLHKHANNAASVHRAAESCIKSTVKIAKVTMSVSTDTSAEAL

As to `C[C@@H](NC(=O)c1nn(-c2ccccc2Cl)c(-c2ccc(Cl)cc2)c1Cc1nnn[nH]1)c1cccc(C(F)(F)F)c1` [[2.12], 1-(2-Chloro-phenyl)-5-(4-chloro-phenyl)-4-(1H-tetrazol-5-ylmethyl)-1H-pyrazole-3-carboxylic acid [(R)-1-(3-trifluoromethyl-phenyl)-ethyl]-amide], the concentration for half-maximal inhibition (IC50) was < 300 nM. Regarding `CC(C)(Cc1ccc(F)cc1)NC(=O)c1nn(-c2ccccc2Cl)c(-c2ccc(Cl)cc2)c1Cc1nn[nH]n1` [[2.5], 5-(4-Chloro-phenyl)-1-(2-chloro-phenyl)-4-(2H-tetrazol-5-ylmethyl)-1H-pyrazole-3-carboxylic acid [2-(4-fluoro-phenyl)-1,1-dimethyl-ethyl]-amide], the IC50 is < 300 nM.

For the compound `C[C@@H](NC(=O)c1nn(-c2ccccc2Cl)c(-c2ccc(Cl)cc2)c1Cc1nn[nH]n1)c1ccc(OC(F)(F)F)cc1` [[2.26], 1-(2-Chloro-phenyl)-5-(4-chloro-phenyl)-4-(2H-tetrazol-5-ylmethyl)-1H-pyrazole-3-carboxylic acid [(R)-1-(4-trifluoromethoxyl-phenyl)-ethyl]-amide], the half-maximal inhibitory concentration (IC50) is < 300 nM.

Take `CC(NC(=O)c1nn(-c2ccccc2Cl)c(-c2ccc(Cl)cc2)c1Cc1nnn[nH]1)c1ccc(F)c(F)c1` (centres unmarked) [[2.16], 1-(2-Chloro-phenyl)-5-(4-chloro-phenyl)-4-(1H-tetrazol-5-ylmethyl)-1H-pyrazole-3-carboxylic acid [1-(3,4-difluoro-phenyl)-ethyl]-amide]: the concentration for half-maximal inhibition (IC50) was < 300 nM. Turning to `C[C@H](c1ccc(C(F)(F)F)cc1)N(C)C(=O)c1nn(-c2ccccc2Cl)c(-c2ccc(Cl)cc2)c1CC(=O)O` [Compound [1.7], (1-(2-Chloro-phenyl)-5-(4-chloro-phenyl)-3-{methyl-[(R)-1-(4-trifluoromethyl-phenyl)-ethyl]-carbamoyl}-1H-pyrazol-4-yl)-acetic acid], the IC50 is < 300 nM. Take `C[C@@H](NC(=O)c1nn(-c2ccccc2Cl)c(-c2ccc(Cl)cc2)c1Cc1nn[nH]n1)c1ccc(F)c(Cl)c1` [[2.24], 1-(2-Chloro-phenyl)-5-(4-chloro-phenyl)-4-(2H-tetrazol-5-ylmethyl)-1H-pyrazole-3-carboxylic acid [(R)-1-(3-chloro-4-fluoro-phenyl)-ethyl]-amide]: the IC50 was < 300 nM. Then `C[C@H](c1ccc(C(F)(F)F)cc1)N(C)C(=O)c1nn(-c2ccccc2Cl)c(-c2ccc(Cl)cc2)c1Cc1nnn[nH]1` [[2.14], 1-(2-Chloro-phenyl)-5-(4-chloro-phenyl)-4-(1H-tetrazol-5-ylmethyl)-1H-pyrazole-3-carboxylic acid methyl-[(R)-1-(4-trifluoromethyl-phenyl)-ethyl]-amide], with < 300 nM; and `CC(C)(NC(=O)c1nn(-c2ccccc2Cl)c(-c2ccc(Cl)cc2)c1Cc1nnn[nH]1)c1ccc(F)cc1` [[2.7], 1-(2-Chloro-phenyl)-5-(4-chloro-phenyl)-4-(1H-tetrazol-5-ylmethyl)-1H-pyrazole-3-carboxylic acid [1-(4-fluoro-phenyl)-1-methyl-ethyl]-amide], with 300 to 3000 nM. Consider `CCC(NC(=O)c1nn(-c2ccccc2Cl)c(-c2ccc(Cl)cc2)c1Cc1nnn[nH]1)c1ccc(Br)cc1` (centres unmarked) [[2.11], 1-(2-Chloro-phenyl)-5-(4-chloro-phenyl)-4-(1H-tetrazol-5-ylmethyl)-1H-pyrazole-3-carboxylic acid [1-(4-bromo-phenyl)-propyl]-amide], for which the IC50 is < 300 nM.

In the case of `C[C@@H](NC(=O)c1nn(-c2ccccc2Cl)c(-c2ccc(Cl)cc2)c1Cc1nn[nH]n1)c1ccc(Cl)c(F)c1` [[2.23], 1-(2-Chloro-phenyl)-5-(4-chloro-phenyl)-4-(2H-tetrazol-5-ylmethyl)-1H-pyrazole-3-carboxylic acid [(R)-1-(3-fluoro-4-chloro-phenyl)-ethyl]-amide], the IC50 was < 300 nM. Regarding `C[C@@H](NC(=O)c1nn(-c2ccccc2Cl)c(-c2ccc(Cl)cc2)c1OCC(=O)O)c1ccc(C(F)(F)F)cc1` [Compound [1.3], {1-(2-Chloro-phenyl)-5-(4-chloro-phenyl)-3-[(R)-1-(4-trifluoromethyl-phenyl)-ethylcarbamoyl]-1H-pyrazol-4-yloxy}-acetic acid], the IC50 is < 300 nM. Take `C[C@@H](NC(=O)c1nn(-c2ccccc2Cl)c(-c2ccc(Cl)cc2)c1CC(=O)O)c1ccc(Br)cc1` [[1.6], [3-[(R)-1-(4-Bromo-phenyl)-ethylcarbamoyl]-1-(2-chloro-phenyl)-5-(4-chloro-phenyl)-1H-pyrazol-4-yl]-acetic acid]: the IC50 is < 300 nM. For `CC(C(=O)O)c1c(C(=O)N(C)[C@H](C)c2ccc(C(F)(F)F)cc2)nn(-c2ccccc2Cl)c1-c1ccc(Cl)cc1` (stereo partly drawn) [Compound [1.11], 2-{1-(2-Chloro-phenyl)-5-(4-chloro-phenyl)-3-{methyl-[(R)-1-(4-trifluoromethyl-phenyl)-ethyl]-carbamoyl}-1H-pyrazol-4-yl}-propionic acid], the IC50 was < 300 nM. For the compound `C[C@@H](Oc1c(C(=O)N[C@H](C)c2ccc(Br)cc2)nn(-c2ccccc2Cl)c1-c1ccc(Cl)cc1)C(=O)O` [[1.4], (R)-2-[3-[(R)-1-(4-Bromo-phenyl)-ethylcarbamoyl]-1-(2-chloro-phenyl)-5-(4-chloro-phenyl)-1H-pyrazol-4-yloxy]-propionic acid], the IC50 is < 300 nM.

On to `C[C@H](NC(=O)c1nn(-c2ccccc2Cl)c(-c2ccc(Cl)cc2)c1Cc1nnn[nH]1)c1ccc(Br)cc1` [[2.4], 1-(2-Chloro-phenyl)-5-(4-chloro-phenyl)-4-(1H-tetrazol-5-ylmethyl)-1H-pyrazole-3-carboxylic acid [(S)-1-(4-bromo-phenyl)-ethyl]-amide], for which the IC50 lay in the range of 300 to 3000 nM. For `CC(NC(=O)c1nn(-c2ccccc2Cl)c(-c2ccc(Cl)cc2)c1Cc1nnn[nH]1)c1ccc(Br)cc1` (centres unmarked) [Compound [2.1], 1-(2-Chloro-phenyl)-5-(4-chloro-phenyl)-4-(1H-tetrazol-5-ylmethyl)-1H-pyrazole-3-carboxylic acid [1-(4-bromo-phenyl)-ethyl]-amide], the IC50 is < 300 nM. In the case of `CC(NC(=O)c1nn(-c2ccccc2Cl)c(-c2ccc(Cl)cc2)c1Cc1nn[nH]n1)c1ccc(Br)cc1F` (centres unmarked) [[2.20], 1-(2-Chloro-phenyl)-5-(4-chloro-phenyl)-4-(2H-tetrazol-5-ylmethyl)-1H-pyrazole-3-carboxylic acid [1-(4-bromo-2-fluoro-phenyl)-ethyl]-amide], the half-inhibitory concentration (IC50) is < 300 nM.

Turning to `CC(NC(=O)c1nn(-c2ccccc2Cl)c(-c2ccc(Cl)cc2)c1Cc1nnn[nH]1)c1ccc(Cl)c(Cl)c1` (centres unmarked) [[2.13], 1-(2-Chloro-phenyl)-5-(4-chloro-phenyl)-4-(1H-tetrazol-5-ylmethyl)-1H-pyrazole-3-carboxylic acid [1-(3,4-dichloro-phenyl)-ethyl]-amide], the IC50 is < 300 nM. As for `C[C@@H](NC(=O)c1nn(-c2ccccc2Cl)c(-c2ccc(Cl)cc2)c1Cc1nnn[nH]1)c1cccc(F)c1` [[2.17], 1-(2-Chloro-phenyl)-5-(4-chloro-phenyl)-4-(1H-tetrazol-5-ylmethyl)-1H-pyrazole-3-carboxylic acid [(R)-1-(3-fluoro-phenyl)-ethyl]-amide], the IC50 was < 300 nM.

Turning to `C[C@@H](NC(=O)c1nn(-c2ccccc2Cl)c(-c2ccc(Cl)cc2)c1Cc1nn[nH]n1)c1ccc(Cl)c(Cl)c1` [[2.22], 1-(2-Chloro-phenyl)-5-(4-chloro-phenyl)-4-(2H-tetrazol-5-ylmethyl)-1H-pyrazole-3-carboxylic acid [(R)-1-(3,4-dichloro-phenyl)-ethyl]-amide], the half-inhibitory concentration (IC50) is < 300 nM.
